{"source": "patent US20030234382A1", "about": "“Sterilizing composition and method for sterilizing using the same” (NIPPON PEROXIDE CO., LTD., priority 2002, published 2003)", "test_system": "chaetomium spore", "assay": "Sterilizing power test (D value) against chaetomium spores", "format": "cell-based", "details": "40° C.; chaetomium spore solution 4×10^6 CFU/ml; peracetic acid and agent concentrations per experiment (c1-c3)", "method": "95 g of tap water was added to 5 g of an equilibrated peracetic acid solution containing 4 wt % of peracetic acid, 16 wt % of hydrogen peroxide and 15 wt % of acetic acid, and the resultant mixture was stirred to prepare a uniform aqueous solution. A peracetic acid concentration of the aqueous solution thus prepared was 2,000 ppm.\nEach of sterilizing power test sample solutions was prepared by adding a predetermined amount of each of peracetic acid sterilizing power-improving agents shown in the following Table 1 to the peracetic acid aqueous solution prepared in the above paragraph (a) and stirring the mixture.\n100 ml of the above prepared test sample solution was placed in an Erlenmeyer flask, and was maintained at 40° C. 1 ml of a chaetomium spore solution having an inoculated bacteria number of 4×10^6 CFU/ml was inoculated therein, and 1 ml of a sample was taken from the Erlenmeyer flask respectively at 10 seconds, 20 seconds, 30 seconds, 60 seconds and 120 seconds after the inoculation. […] Thereafter, a number of live bacteria remaining in each sample optionally diluted was measured in accordance with plate mix-diluting cuture method using a potato dextrose agar medium, and a D value (time (unit: minute) taken to reduce a bacteria number to 1/10) was determined as a standard of sterilizing power. […]"}
{"compound": "OCCc1ccccc1", "note": "[compound 8]", "values": [{"measurement": "D40 (D value: time taken to reduce a bacteria number to 1/10)", "result": 238, "unit": "min"}]}
